Data reported in patent publication US9732046B2, “Substituted 1,2,4-triazines as tubulin inhibitors” (YM Biosciences Australia Pty Ltd., priority 2003, dated 2017).

Experiments:
Type in all cases: cell-based
PC3 (Prostate Cancer) = test: Cellular growth inhibition assay (MTT), PC3; settings: Table 1, 40 hr incubation
Protocol: (§1) For screening purposes, compounds were diluted in 96 well plates at a concentration of 20 μM. Plates were warmed at 37° C. for 30 minutes before assay.
(§2) K562 (Chronic Myeloid Leukemia), PC3 (Prostate Cancer), and DU145 (Prostate Cancer) were obtained from the American Type Culture Collection (ATCC). K562 was grown in RPMI, with 10% FBS with Glutamx added. DU145 cells were cultured in DMED, with 10% FBS and Glutamx and MEM non-essential amino acids added. PC3 cells were grown in F12K medium, with 10% FBS and Glutamx and MEM non-essential amino acids added. All cells were grown at 37° C. in 5% CO2.
(§3) Cell suspensions were prepared by harvesting cells from culture. (Cells used in this test should be in later log phase growth and high viability.) Cells were diluted in correct growth medium to 1.1× final concentration (from 50000 cell/mL to 200,000 cell/mL, depending on cell line).
(§4) Compounds to be tested were added (10 μL, 10× final concentration) to a flat bottom 96-well plate. The cellular suspension (90 μL per well) was added, and the plate incubated for 40 hr at 37° C., 5% CO2. MTT (20 μL per well, 5 mg/mL in PBS) was added and the plates were returned to the incubator for a further 6 hours. Lysis buffer (100 μL per well, 10% SDS, 0.01N HCl) was added and the plate stored in the incubator overnight. The plate was then read at 590 nm.

[1] = test system: K562 (Chronic Myeloid Leukemia); test: Cellular growth inhibition assay (MTT), K562; settings: Homo sapiens, Table 1, 40 hr incubation
Protocol: as §1, §2, §3, §4

[2] = biological target: T1, TelJak2 (BaF3 TELJAK cells, TEL/Jak2 fusion) (Homo sapiens, UniProt O60674); test: Cellular growth inhibition assay (MTT), BaF3 TEL:JAK2 cell line; settings: Table 1, 40 hr incubation
T1 construct: The regions encompassing the kinase domain of JAK2 (nucleotides 2994-3914); expressed in transfected cells; host or cells: BaF3 cells bearing the pTET-off plasmid, transfected with pTELJAK2 (pTRE2 vector); the other entry of the earlier key: ETV6 (P41212, Transcription factor ETV6)
T1 sequence (O60674 with tags, fused parts or gaps): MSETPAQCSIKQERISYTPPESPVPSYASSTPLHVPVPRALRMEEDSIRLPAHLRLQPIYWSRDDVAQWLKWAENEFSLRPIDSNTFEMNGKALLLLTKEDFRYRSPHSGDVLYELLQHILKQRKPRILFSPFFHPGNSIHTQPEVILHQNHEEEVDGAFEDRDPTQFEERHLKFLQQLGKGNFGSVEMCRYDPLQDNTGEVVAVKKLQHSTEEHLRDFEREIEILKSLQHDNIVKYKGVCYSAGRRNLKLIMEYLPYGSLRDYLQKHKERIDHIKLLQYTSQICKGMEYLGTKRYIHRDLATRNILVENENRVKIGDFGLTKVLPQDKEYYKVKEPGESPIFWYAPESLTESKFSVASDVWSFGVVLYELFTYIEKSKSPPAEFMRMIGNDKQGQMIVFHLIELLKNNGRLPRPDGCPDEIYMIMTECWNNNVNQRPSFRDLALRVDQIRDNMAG
Protocol: as §1
(§5) The coding region encompassing nucleotides 1-487 of TEL was amplified by PCR using the oligonucleotides 5TEL (5′-GGAGGATCCTGATCTCTCTCGCTGTGAGAC-3′) (SEQ ID NO: 1) and 3TEL (5′-AGGC GTCGACTTCTTCTTGATGGTTCTG-3′) (SEQ ID NO: 2) and U937 mRNA as template. A BamH I site was incorporated into the 5TEL primer, and a Sal I site was incorporated into the 3TEL primer. The regions encompassing the kinase domain of JAK2 (nucleotides 2994-3914; JAK2F 5′-ACGC GTCGACGGTGCCTTTGAAGACCGGGAT-3 (SEQ ID NO: 3); JAK2R 5′-ATAGTTTAGCGGCCGCTCAGAATGAAGGTCATTT-3′) (SEQ ID NO: 4) and JAK3 (nucleotides 2520-3469; JAK3F 5′-GAAGTCGACTATGCCTGCCAAGACCCCACGATCTT-3′ (SEQ ID NO: 5); JAK3R 5′-GGATCTAGACTATGAAAAGGACAGGGAGTGGTGTTT-3′ (SEQ ID NO: 6)) were generated by PCR using Taq DNA polymerase (Gibco/BRL) and U937 mRNA as template. A Sal I site was incorporated into the forward primer of JAK2 and JAK3, a Not I site was incorporated into the JAK2 reverse primer and a Xba I site was added to the reverse primer of JAK3.
(§6) A TEL/Jak2 fusion was generated by digestion of the TELPCR product with BamH I/Sa1 I, digestion of the JAK2 PCR product with Sa1 I/Not I followed by ligation and subcloning into the mammalian expression Vector pTRE 2 (Clontech) digested with BamH I-Not I (pTELJAK2). For JAK3 Sa1 I/Not I cleaved kinase domain PCR product was ligated with BamH I/Sa1 I cleaved TELproduct followed by ligation into BamH I/Not I cleaved pTRE2 (pTELJAK3).
(§7) The growth factor dependent myelomonocytic cell line BaF3 bearing the pTET-off plasmid (Clontech) was transfected with either pTELJAK2 or pTELJAK3 and the cells selected for factor independent growth. BaF 3 wild type cells were cultured in DMEM 10% FCS, 10% WEHI 3B conditioned medium. BaF3 TELJAK cells were cultured in DMEM 10% Tet-System Approved FBS (without WEHI 3B conditioned medium).
as §3, §4

[3] = biological target: T2, TelJak3 (BaF3 TELJAK cells, TEL/JAK3 fusion) (Homo sapiens, UniProt P52333); test: Cellular growth inhibition assay (MTT), BaF3 TEL:JAK3 cell line; settings: Table 1, 40 hr incubation
T2 construct: For JAK3 Sa1 I/Not I cleaved kinase domain PCR product was ligated with BamH I/Sa1 I cleaved TELproduct; expressed in transfected cells; host or cells: BaF3 cells bearing the pTET-off plasmid, transfected with pTELJAK3 (pTRE2 vector); the other entry of the earlier key: ETV6 (P41212, Transcription factor ETV6)
T2 sequence (P52333 with tags, fused parts or gaps): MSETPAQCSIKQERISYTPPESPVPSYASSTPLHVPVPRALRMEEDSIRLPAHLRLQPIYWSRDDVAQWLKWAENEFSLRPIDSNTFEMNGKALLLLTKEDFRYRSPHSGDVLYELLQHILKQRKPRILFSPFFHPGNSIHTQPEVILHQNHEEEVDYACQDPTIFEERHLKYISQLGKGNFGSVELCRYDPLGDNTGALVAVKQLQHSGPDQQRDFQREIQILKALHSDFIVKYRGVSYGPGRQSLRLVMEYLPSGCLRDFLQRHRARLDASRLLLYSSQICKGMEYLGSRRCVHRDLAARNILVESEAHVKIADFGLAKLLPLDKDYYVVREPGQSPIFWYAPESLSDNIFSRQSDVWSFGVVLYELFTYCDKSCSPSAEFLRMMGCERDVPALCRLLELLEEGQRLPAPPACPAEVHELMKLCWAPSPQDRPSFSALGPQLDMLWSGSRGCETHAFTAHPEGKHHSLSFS
Protocol: as §1, §5, §6, §7, §3, §4

DU145 (Prostate Cancer) = test: Cellular growth inhibition assay (MTT), DU145; settings: Homo sapiens, DU-145, Table 1, 40 hr incubation
Protocol: as §1, §2, §3, §4

Compound	inhibition at 20 µM (PC3 (Prostate Cancer)) [%]	inhibition at 20 µM [1] [%]	inhibition at 20 µM [2] [%]	inhibition at 20 µM [3] [%]	inhibition at 20 µM (DU145 (Prostate Cancer)) [%]
CCCC(Nc1cncc(-c2ccc(C(=O)N3CCOCC3)cc2)n1)c1ccccc1 (centres unmarked)	< 50	< 50	> 50	> 50	–
CCCC(Nc1cncc(-c2ccc(CNC(=O)C3CCC(=O)N3)cc2)n1)c1ccccc1 (centres unmarked)	< 50	> 50	> 50	> 50	< 50
CCCC(Nc1cncc(-c2ccc(OCCN(CC)CC)c(OC)c2)n1)c1cncc(C)c1 (centres unmarked)	< 50	> 50	> 50	> 50	< 50
CCCC(Nc1cncc(-c2ccc(C(=O)NCCN(C)C)cc2)n1)c1ccccc1 (centres unmarked)	< 50	< 50	> 50	> 50	< 50
CCCC(Nc1cncc(-c2ccc(C(=O)NCCCN(CC)CC)cc2)n1)c1ccccc1 (centres unmarked)	< 50	> 50	> 50	> 50	> 50
CCCC(Nc1cncc(-c2ccc(NC(=O)NCC)cc2)n1)c1cccnc1 (centres unmarked)	< 50	> 50	> 50	> 50	< 50
CCCC(Nc1cncc(-c2ccc(CO)c(OC)c2)n1)c1cccnc1 (centres unmarked)	< 50	> 50	> 50	> 50	< 50
CCCC(Nc1nnc(C)c(-c2cc(OC)c(OC)c(OC)c2)n1)c1ccccc1 (centres unmarked)	< 50	> 50	> 50	> 50	< 50
CCCC(Nc1cncc(-c2ccc(OCCCN3CCN(C)CC3)c(OC)c2)n1)c1cccnc1 (centres unmarked)	< 50	< 50	> 50	> 50	< 50
COc1cc(-c2nc(N[C@H](C)c3ccccc3)nnc2C)cc(OC)c1OC	< 50	< 50	> 50	> 50	< 50
CCCC(Nc1cncc(-c2ccc(NC(=O)NCCCN(CC)CC)c(OC)c2)n1)c1cccnc1 (centres unmarked)	< 50	< 50	> 50	> 50	< 50
COc1cc(-c2ncc(C)c(NC(CCO)c3ccccc3)n2)ccc1O (centres unmarked)	< 50	> 50	> 50	> 50	> 50
CCCC(Nc1cncc(-c2ccc(CN3CCCCC3)cc2)n1)c1ccccc1 (centres unmarked)	< 50	< 50	> 50	> 50	< 50
CCCC(Nc1cncc(-c2ccc(NC(=O)N3CCN(C)CC3)c(OC)c2)n1)c1cccnc1 (centres unmarked)	> 50	< 50	> 50	> 50	< 50
CCCC(Nc1cncc(-c2ccc(OCCCN3CCOCC3)c(OC)c2)n1)c1cccnc1 (centres unmarked)	< 50	< 50	> 50	> 50	< 50
